We go through 30 compounds from patent US6875760B2 (Novo Nordisk A/S, priority 1999, dated 2005).

T1 sequence (P47871 26-477): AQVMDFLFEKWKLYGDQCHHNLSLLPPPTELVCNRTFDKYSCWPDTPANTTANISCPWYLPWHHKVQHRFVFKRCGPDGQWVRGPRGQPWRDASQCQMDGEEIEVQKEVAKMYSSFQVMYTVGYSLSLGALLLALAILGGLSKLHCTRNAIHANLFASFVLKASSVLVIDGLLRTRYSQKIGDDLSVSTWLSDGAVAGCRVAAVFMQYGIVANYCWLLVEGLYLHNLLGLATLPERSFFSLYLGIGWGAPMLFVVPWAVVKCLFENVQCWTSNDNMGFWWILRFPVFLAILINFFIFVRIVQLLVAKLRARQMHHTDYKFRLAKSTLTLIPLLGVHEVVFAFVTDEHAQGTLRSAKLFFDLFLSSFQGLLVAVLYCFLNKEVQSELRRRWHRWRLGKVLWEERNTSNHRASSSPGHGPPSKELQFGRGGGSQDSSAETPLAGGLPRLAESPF

This assay concerns the target T1, human glucagon receptor (Homo sapiens, UniProt P47871).
T1 construct: expressed in transfected cells; host or cells: BHK (baby hamster kidney) cells
Kind of assay: Glucagon Binding Assay (III). Conditions: BHK cell membranes, WGA SPA beads, 125I-glucagon; read-out: Glu Bd Assay (III) IC50. How it is done: BHK (baby hamster kidney cell line) cells were transfected with the human glucagon receptor and a membrane preparation of the cells was prepared.
All steps in the membrane preparation were kept on ice or performed at 4° C. BHK cells were harvested and centrifuged. […] The pellet was resuspended in homogenisation buffer, homogenised 2×10 sec (Polytron) and additional homogenisation buffer was added. […] (Polytron).
The glucagon binding assay was carried out in opti plates (Polystyrene Microplates, Packard). […] Finally 50 μL WGA beads containing 1 mg beads were transferred to the well. The assay was incubated for 4 hours on a shaker and then settled for 8-48 hours. The opti plates were counted in a Topcounter. Non-specific binding was determined with 500 nM of glucagon.
On to `CCCCOC(=O)c1ccc(NC(=O)N(CCc2ccc(Cl)cc2)Cc2ccc(C(=O)NCCC(=O)O)cc2)cc1` [Example 51, 4-{3-[4-(2-Carboxyethylcarbamoyl)benzyl]-3-[2-(4-chlorophenyl)ethyl]ureido}benzoic acid butyl ester], for which the IC50 (in general, the concentration that inhibits the measured activity by half) came to 0.721 µM.

For `CC(C)N1C(=O)c2ccc(NC(=O)N(Cc3ccc(C(=O)NCCC(=O)O)cc3)c3ccc(C(C)(C)C)cc3)cc2C1=O` [Example 630, 3-{4-[1-(4-tert-Butylphenyl)-3-(N′-isopropylphthalimid-4-yl)ureidomethyl]benzoylamino}propionic acid], the IC50 stood at 0.073 µM.

In the case of `CS(=O)(=O)c1ccc2nc(NC(=O)N(Cc3ccc(C(=O)Nc4nn[nH]n4)cc3)c3ccc(C4CCCCC4)cc3)sc2c1` [Example 616, 4-[1-(4-Cyclohexylphenyl)-3-(6-methylsulfonylbenzothiazol-2-yl)ureidomethyl]-N-(2H-tetrazol-5-yl)benzamide], the IC50 turned out to be 0.745 µM.

As for `O=C(Nc1nn[nH]n1)c1ccc(CN(C(=O)Nc2ccc3c(c2)C(=O)N(CC2CC2)C3=O)c2ccc(C3=CCCCC3)cc2)cc1` [Example 644, 4-[3-(N′-[Cyclopropylmethyl]phthalimid-4-yl)-1-(4-cyclohex-1-enylphenyl)ureidomethyl]-N-(2H-tetrazol-5-yl)benzamide], the IC50 stood at 0.004 µM.

Take `CC(C)c1ccc(NC(=O)N(Cc2ccc(C(=O)NCCC(=O)O)cc2)C2CC3CC(C2C)C3(C)C)cc1` (stereo not drawn) [Example 66, 3-{4-[3-(4-Isopropylphenyl)-1-(2,6,6-trimethylbicyclo[3.1.1]hept-3-yl)ureidomethyl]benzoylamino}propionic acid]: the half-inhibitory concentration (IC50) stood at 0.267 µM.

As for `CC(C)N1C(=O)c2ccc(NC(=O)N(Cc3ccc(C(=O)NCCC(=O)O)cc3)c3ccc(C4CCCCC4)cc3)cc2C1=O` [Example 631, 3-{4-[1-(4-Cyclohexyl-phenyl)-3-(N′-isopropylphthalimid-4-yl)ureidomethyl]benzoylamino}propionic acid], the IC50 was 0.023 µM.

Consider `CC(C)(C)c1ccc(N(Cc2ccc(C(=O)Nc3nn[nH]n3)cc2)C(=O)Nc2ccc(Cl)c(C(F)(F)F)c2)cc1` [Example 331, 4-[1-(4-tert-Butylphenyl)-3-(4-chloro-3-trifluoromethylphenyl)ureidomethyl]-N-(2H-tetrazol-5-yl)benzamide], for which the IC50 worked out at 0.03 µM.

For the compound `CC(C)(C)c1ccc(N(Cc2ccc(C(=O)NCCC(=O)O)cc2)C(=O)Oc2cccc(OC(F)(F)F)c2)cc1` [Example 412, 3-(4-{[(4-tert-Butylphenyl)-(3-trifluoromethoxyphenoxycarbonyl)amino]methyl}benzoylamino)propionic acid], the IC50 worked out at 0.604 µM.

For `CC(C)(C)C1CCC(N(Cc2ccc(C(=O)Nc3nn[nH]n3)cc2)C(=O)c2ccc(-c3ccccc3)cc2)CC1` (stereo not drawn) [Example 487, Biphenyl-4-carboxylic acid (4-tert-butylcyclohexyl)-[4-(2H-tetrazol-5-ylcarbamoyl)benzyl]amide], the IC50 was 0.523 µM.

Take `CC(=O)c1cccc(NC(=O)N(Cc2ccc(C(=O)Nc3nn[nH]n3)cc2)c2ccc(C(C)(C)C)cc2)c1` [Example 297, 4-[3-(3-Acetylphenyl)-1-(4-tert-butylphenyl)ureidomethyl]-N-(2H-tetrazol-5-yl)benzamide]: the IC50 was 0.087 µM.

For `CC(C)(C)C1CCC(N(Cc2ccc(C(=O)Nc3nn[nH]n3)cc2)C(=O)c2ccc(C3CCCCC3)cc2)CC1` (stereo not drawn) [Example 488, 4-{[(4-tert-Butylcyclohexyl)-(4-cyclohexylbenzoyl)amino]methyl}-N-(2H-tetrazol-5-yl)benzamide], the IC50 was found to be 0.098 µM.

`CC(C)(C)C1CCC(N(Cc2ccc(C(=O)NCCC(=O)O)cc2)C(=O)Oc2ccc([N+](=O)[O-])cc2)CC1` (stereo not drawn) [Example 399, 3-(4-{[(4-tert-Butylcyclohexyl)-(4-nitrophenoxycarbonyl)amino]methyl}benzoylamino)propionic acid]: the concentration for half-maximal inhibition (IC50) came to 0.12 µM.

Consider `CC(C)(C)[C@H]1CC[C@H](N(Cc2ccc(C(=O)Nc3nn[nH]n3)cc2)C(=O)Nc2cc(C(F)(F)F)cc(C(F)(F)F)c2)CC1` [Example 375, 4-[3-(3,5-Bis(trifluoromethyl)phenyl)-1-(trans-4-tert-butylcyclohexyl)ureidomethyl]-N-(2H-tetrazol-5-yl)benzamide], for which the IC50 was 0.029 µM.

For the compound `C[C@@H](NC(=O)N(Cc1ccc(C(=O)Nc2nn[nH]n2)cc1)c1ccc(C2=CCCCC2)cc1)c1ccc(Br)cc1` [Example 355, (R)-4-[3-[1-(4-Bromophenyl)ethyl]-1-(cyclohex-1-enylphenyl)ureidomethyl]-N-(2H-tetrazol-5-yl)benzamide], the IC50 was found to be 0.112 µM.

As for `CCCCc1ccc(N(Cc2ccc(C(=O)Nc3nn[nH]n3)cc2)C(=O)Nc2ccccc2)cc1` [Example 280, 4-[1-(4-Butylphenyl)-3-phenylureidomethyl]-N-(2H-tetrazol-5-yl)benzamide], the IC50 is 0.252 µM.

For the compound `CS(=O)(=O)c1ccc(NC(=O)N(Cc2ccc(C(=O)Nc3nn[nH]n3)cc2)c2ccc(OC(F)(F)F)cc2)cc1` [Example 451, 4-[3-(4-Methylsulfonylphenyl)-1-(4-trifluoromethoxyphenyl)ureidomethyl]-N-(2H-tetrazol-5-yl)benzamide], the IC50 worked out at 3.45 µM.

As to `CCCCC(CC)CN(Cc1ccc(C(=O)NCCC(=O)O)cc1)C(=O)Nc1ccc(C)cc1` (stereo not drawn) [Example 39, 3-{4-[1-(2-Ethylhexyl)-3-p-tolylureidomethyl]benzoylamino}propionic acid], the IC50 was found to be 0.227 µM.

For `CCCCOc1ccc(NC(=O)N(Cc2ccc(C(=O)Nc3nn[nH]n3)cc2)c2ccc(C(C)(C)C)cc2)cc1S(C)(=O)=O` [Example 367, 4-[3-(4-Butoxy-3-methylsulfonylphenyl)-1-(4-tert-butylphenyl)ureidomethyl]-N-(2H-tetrazol-5-yl)benzamide], the IC50 was found to be 0.034 µM.

On to `O=C(O)CCNC(=O)c1ccc(CN(C(=O)Nc2ccc3c(c2)C(=O)N(CC2CC2)C3=O)c2ccc(C3=CCCCC3)cc2)cc1` [Example 645, 3-{4-[1-(4-Cyclohex-1-enylphenyl)-3-(N′-[cyclopropylmethyl]phthalimid-4-yl)ureidomethyl]benzoylamino}propionic acid], for which the IC50 was determined as 0.007 µM.

Regarding `Cn1nnc(-c2cccc(NC(=O)N(Cc3ccc(C(=O)Nc4nn[nH]n4)cc3)c3ccc(C(C)(C)C)cc3)c2)n1` [Example 370, 4-{1-(4-tert-Butylphenyl)-3-[3-(2-methyl-2H-tetrazol-5-yl)phenyl]ureidomethyl}-N-(2H-5-yl)benzamide], the IC50 amounted to 0.087 µM.

`CC(C)(C)C1CCC(N(Cc2ccc(C(=O)Nc3nn[nH]n3)cc2)C(=O)/C=C/c2c(Cl)cccc2Cl)CC1` (stereo not drawn) [Example 552, 4-({(4-tert-Butylcyclohexyl)-[3-(2,6-dichlorophenyl)acryloyl]amino}methyl)-N-(2H-tetrazol-5-yl)benzamide]: the IC50 came out at 0.133 µM.

On to `CCCCOc1ccc(NC(=O)N(Cc2ccc(C(=O)NCCC(=O)O)cc2)C2CCC(C(C)(C)C)CC2)cc1` (stereo not drawn) [Example 69, 3-{4-[3-(4-Butoxyphenyl)-1-(4-tert-butyl-cyclohexyl)ureidomethyl]benzoylamino}propionic acid], for which the IC50 worked out at 0.09 µM.

With `CC(C)(C)C1CCC(N(Cc2ccc(C(=O)NCCC(=O)O)cc2)C(=O)Nc2ccc(C#N)c(C(F)(F)F)c2)CC1` (stereo not drawn) [Example 70, 3-{4-[1-(4-tert-Butylcyclohexyl)-3-(4-cyano-3-trifluoromethylphenyl)ureidomethyl]benzoylamino}propionic acid], the IC50 was found to be 0.168 µM.

On to `O=C(O)CCNC(=O)c1ccc(CN(C(=O)Oc2cccc([N+](=O)[O-])c2)c2ccc(C3CCCCC3)cc2)cc1` [Example 414, 3-(4-{[(4-Cyclohexylphenyl)-(3-nitrophenoxycarbonyl)amino]methyl}benzoylamino)propionic acid], for which the IC50 stood at 0.934 µM.

For the compound `O=C(O)CCNC(=O)c1ccc(CN(NC(=O)c2ccc(OC(F)(F)F)cc2)C2CCC3CCCCC3C2)cc1` (stereo not drawn) [Example 427, 3-{4-[N-(Decahydronaphthalen-2-yl)-N′-(4-trifluoromethoxybenzoyl)hydrazinomethyl]benzoylamino}propionic acid], the IC50 turned out to be 0.512 µM.

On to `CC(C)(C)C1CCC(N(Cc2ccc(C(=O)Nc3nn[nH]n3)cc2)C(=O)Oc2ccc(S(C)(=O)=O)cc2)CC1` (stereo not drawn) [Example 623], for which the IC50 was found to be 2.7 µM.

As to `O=C(Nc1nn[nH]n1)c1ccc(CN(C(=O)CCCc2ccccc2)c2ccc(C3CCCCC3)cc2)cc1` [Example 535, 4-{[(4-Cyclohexylphenyl)-(4-phenylbutyryl)amino]methyl}-N-(2H-tetrazol-5-yl)benzamide], the IC50 was 0.224 µM.

Take `CC(C)(C)C1CCC(N(Cc2ccc(C(=O)NCCC(=O)O)cc2)C(=O)Nc2ccc(C(F)(F)F)cc2)CC1` (stereo not drawn) [Example 63, 3-{4-[1-(4-tert-Butylcyclohexyl)-3-(4-trifluoromethylphenyl)ureidomethyl]benzoylamino}propionic acid]: the IC50 amounted to 0.645 µM.

Consider `CC(C)c1ccc(NC(=O)N(Cc2ccc(C(=O)NCCC(=O)O)cc2)CC(c2ccccc2)c2ccccc2)cc1` [Example 55, 3-{4-[1-(2,2-Diphenylethyl)-3-(4-isopropylphenyl)ureidomethyl]benzoylamino}propionic acid], for which the IC50 worked out at 1 µM.

Take `CN(C)C(=O)c1cccc(NC(=O)N(Cc2ccc(C(=O)Nc3nn[nH]n3)cc2)c2ccc(C3CCCCC3)cc2)c1` [Example 463, N,N-Dimethyl-3-{3-(4-cyclohexylphenyl)-3-[4-(2H-tetrazol-5-ylcarbamoyl)benzyl]ureido}benzamide]: the concentration for half-maximal inhibition (IC50) turned out to be 0.256 µM.
